Tests used:
[1] = tested on: Male Rj: Wistar (Han) rats; test: Vogel Conflict Test in the rat; assay type: in vivo; conditions: 64 mg/kg p.o., 60 minutes before the test; p<0.01
Description: Rufinamide was dispersed in 0.5% methylcellulose (MC) in distilled water. Vehicle was dispersed in 0.5% MC in distilled water. Clobazam was dispersed in 0.5% MC in distilled water. Methylcellulose (Sigma), batch n° 62K0144, white powder. Distilled water (Laboratoire Aguettant, sterile water for injectable preparation). All substances were stored in a dry, dark, controlled access area and maintained at a controlled ambient temperature (+18° C.). The vehicle suspensions were stored at +4° C.
The vehicle, test substance and reference substance were administered in a volume of 5 ml/kg body weight.
Male Rj: Wistar (Han) rats, 171-205 g body weight range were used. They were supplied by Elevage Janvier, 53940 Le Genest-Saint-Isle, France.
Animals were delivered to the laboratory at least 5 days before the experiment, during which time they were acclimatized to the laboratory conditions. They were housed in groups of 5 in macrolon cages (41×25×14 cm) on wood litter (Litalabo—SPPS, 95100 Argenteuil, France) with free access to food (Code 113-SAFE, 91360 Epinay-sur-Orge, France) and water until
Results in grouped data tables are presented as means followed by a ± sign and the standard error of the mean (s.e.m.) on the basis of 15 animals per group and as percent change from control. The statistical tests used are indicated with the method. All statistical calculations were performed using commercial software (Microsoft Excel®, GB Stat version 6.5), and verified test by test according to Porsolt & Partners Pharmacology's standardized internal procedures. All differences were considered statistically significant when the null hypothesis could be rejected at the risk α=0.05 or less.
Rats were deprived of water for 48 hours and were then placed individually into a transparent Plexiglas enclosure (15×32×34 cm) with a floor consisting of stainless steel bars (0.4 cm) spaced 1 cm apart. The back wall of the enclosure was made of opaque Plexiglass thereby concealing the observer from the experimental animal. In the centre of the opposite wall, 5 cm above the floor, a metal water spout protruded into the cage and was connected to one pole of a shock generator (Apelex: Type 011346). The other pole of the shock generator was connected to the metal grid floor.
The rat was left to explore until it found the water spout. Then, every time it drank, it received a slight electric shock (1.7 mA, 1 sec.) 2 seconds after it started lapping. The number of shocks received (punished drinkings) was counted during a 3 minute period.
15 rats were studied per group. The test was performed blind.
rufinamide was evaluated at 25, 50, 100 and 200 mg/kg, administered p.o. 60 minutes before the test, and compared with a vehicle control group.
Clobazam (64 mg/kg), administered under the same experimental conditions, was used as reference substance.
Data were analyzed by comparing treated groups with vehicle control using unpaired Student's t tests.

[2] = small scale placebo controlled study; cited from earlier work
male OF-1 mice [3] = conditions: general statement, no dose given; cited from earlier work
male OF-1 mice [4] = test: half-enclosed platform (HEP) test; assay type: in vivo, mouse
Text: Rufinamide and carbamazepine were compared in the half-enclosed platform (HEP) test. The test determines how drugs affect the exploratory behaviour of a mouse placed upon a novel, half-enclosed platform and gives information as to whether a drug is a stimulant, depressant or disinhibitory as with, for example the benzodiazepines which increase exploration of the platform. It is also useful for determining duration of action and dose-findings studies. The HEP is a further development of the simple elevated platform used by Kaesermann to assess anxiolytic properties of drugs (Ref. Käsermann H. P. (1986) Psychopharmacol. 89:31-37). In this study carbamazepine and rufinamide were tested in the same dose ranges i.e. 0.32/1/3.2 and 10 mg/kg p.o. of each were given to male OF-1 mice 1 hr before testing.
The ethogram used consists of 9 elements of exploratory behaviour two of which involve static postures i.e. immobility and stretched attend posture, the latter being an ambivalent element indicative of approach-avoidance conflict. These elements are immediately spontaneous and are not induced by either training or punishment procedures. Upright postures which are posturally demanding are useful to detect muscle relaxation e.g. rearing (FIG. 10).

[5] = tested on: male OF-1 “intruder” mice; conditions: earlier work (Dixon et al. 1994); cited from earlier work
[6] = tested on: male OF-1 “intruder” mice; test: Intruder test (social withdrawal of intruder mice); assay type: in vivo, mouse; conditions: 1/3/10 mg/kg oral
Description: Rufinamide, a Na-channel blocker and anti-epileptic agent, and carbamazepine, an anticonvulsant employed to treat bipolar disorder, were given to male OF-1 “intruder” in oral-doses of 1/3/10 mg/kg, 1 hr before the animals were confronted with an individually-housed, aggressive, male OF-1 resident mouse. […] This increase in social investigation (sociotropic effect) was accompanied by a decrease in the frequency and duration of defensive ambivalence probably through competitive inhibition. No signs of motor stimulation were detected.
The Intruder test duplicates a territorial encounter between a territory holder (aggressive male) and a subordinate “intruder” mouse. […] In this test the intruders receive the treatment whereas the residents remain untreated. (Dixon, A. K., Huber, C., Lowe, D. J. Clin. Psychiatry. 55 (9) Suppl B, 4-7 (1994)). For purposes of this study, rufinamide and carbamazepine were given orally to intruder mice 1 hr before being introduced singly to aggressive residents using doses of ⅓ and 10 mg/kg.
Over 60 ethological elements describing the social and non-social behaviour of mice based on the ethogram originally proposed by Grant and Mackintosh (Grant, E. C. Mackintosh, J. H. Behaviour 21: 246-259 (1963) ) and classified according to 9 behavioural categories (Dixon, A. K., Huber, C., Fisch, H. U. Adv. Study. Behaviour. 19: 171-204 (1990)) form the rodent ethogram as used in this test (FIG. 3).

“intruder” rat = conditions: background statement on anxiolytic compounds; cited from earlier work

## CN1C(=O)CC(=O)N(c2ccccc2)c2cc(Cl)ccc21 [Clobazam]
[1]
  number of shocks received (punished drinking), change vs vehicle control: +64%

## Nc1nnc(-c2cccc(Cl)c2Cl)c(N)n1 [Lamotrigine]
[2]
  efficacy in treating post-traumatic stress disorder: some efficacy

## CC(N)Cc1ccccc1 (stereo not shown) [amphetamine]
Male OF-1 mice [3]
  behavioural disinhibition in the HEP test: not

## NC(=O)N1c2ccccc2C=Cc2ccccc21 [carbamazepine]
Male OF-1 mice [4]; 0.32-10 mg/kg p.o., not attaining statistical significance
  exploratory activity (Sap,Go) in the open half of the platform: general tendency for increased exploratory activity
Male OF-1 mice [4]; 0.32/1/3.2 and 10 mg/kg p.o., 1 hr before testing
  overall ethological profile: No major changes in behaviour occurred
Male OF-1 mice [4]; at 10 mg/kg p.o.
  elements of stationary activity: significant decrease
Male OF-1 mice [4]; at 3.2 and 10 mg/kg p.o.
  time spent in forward locomotion (Go) in the enclosed half: significant shortening
[5]
  social withdrawal in the Intruder test: reverses social withdrawal
[6]; 1 hr before 6 minute encounter
  non-social (NS) behaviour, frequency: did not change
[6]; 1 hr before 6 minute encounter, frequency and duration
  social investigation (SI): dose-related increase
[6]; 1 hr before encounter
  defensive ambivalence: reduced but, because of large variation did not attain significance
  overall social contact (SIM): social investigation combined with mating behaviour: preserved the clear sociotropic action
  static-flight elements: dose-related reduction persisted but also did not attain significance
  total number of ethological elements performed in the 6 minute encounter: did not change

## CN1C(=O)CN=C(c2ccccc2)c2cc(Cl)ccc21 [diazepam]
“intruder” rat
  intruder's fear and tendency to scrutinize the resident partner: reduce the intruder's fear and to increase its tendency to scrutinize the resident partner
Male OF-1 mice [3]
  behavioural disinhibition in the HEP test: demonstrable

Source: patent US20090054414A1, “Rufinamide for the Treatment of Post-Traumatic Stress Disorder” (SYNOSIA THERAPEUTICS, priority 2007, published 2009)
